In ChEMBL document CHEMBL1151374, “Plant anticancer agents. XIX Constituents of Aquilaria malaccensis” (1981):
Values after ≈ are worked out from the molar mass of the structure shown. Active and inactive are the calls of the source. No cut-off for these calls is given here.

Assays:
[1] = system: P388; test: Cytotoxicity against mouse P388 cells in in vitro assay; assay type: functional; details: read-out: ED50 (the source's name)
[2] = system: P388; test: Cytotoxicity against mouse P388 cells in in vivo assay; assay type: functional, organism-based

SMILES	EC50 [1] [µg/mL]	Activity [2]
CCC/C=C/C=C/C=C/C(=O)O[C@@H]1[C@@H](C)[C@@]2(O)[C@@H](C=C(CO)C[C@]3(O)C(=O)C(C)=C[C@@H]23)[C@@H]2C(C)(C)[C@]12OC(C)=O	0.0022 (≈ 0.00397 µM)	
CCCCCCCCCCCCCCCCCCCCCC(=O)OCC(COC(=O)CCCCCCCCCCCCCCCCCCCCC)OC(=O)/C=C/c1ccc(O)c(OC)c1	0.8 (≈ 0.876 µM)	inactive
